The text below walks through data of publication PMC5117135 (ACS Chemical Biology, 2016).

The subject of data set [1] is PqsA. Conditions: read-out: Km as PqsA substrate; cited from earlier work.
Data set [2] deals with MvfR. Conditions: binding to and activation of MvfR; cited from earlier work.
In data set [3] the test system is HHQ and PQS quinolone production in P. aeruginosa strain PA14. The data set can be described thus: Inhibition of HHQ and PQS quinolone production, LC-MS/MS quantitation. It is filed as cell-based, Pseudomonas aeruginosa. Conditions: dose and time course over 24 h.
The subject of data set [4] is P. aeruginosa PA14. The data set can be described thus: Compound accumulation, LC-MS/MS quantitation of lysate. It is filed as cell-based, Pseudomonas aeruginosa. Conditions: 1000 μM extracellular, 30 min.

The Km is the concentration of substrate that gives half-maximal velocity. On to `O=C(O)c1ccccc1` [benzoate], for which, in data set [1], the Km is 150 µM. For the molecule `CCCCCCCc1nc2ccccc2c(O)c1O` [PQS, 3,4-dihydroxy-2-heptylquinoline], in data set [2], the “potency on MvfR relative to HHQ” value is listed as 100 fold. Take `Nc1cccc(F)c1C(=O)O` [6FABA, 6-Fluoroanthranilate]: the “lowest concentration that inhibited or delayed quinolone production” value in data set [3] was found to be 100 µM. For the same molecule, in data set [4], the “penetration relative to the extracellular concentration applied” value was 2–3%. The intracellular concentration in data set [4] (PA14 in LB, OD600 ≈ 0.5, calculated based on CFU) is 20 to 30 µM.

For the molecule `Nc1ccccc1C(=O)O` [anthranilate], in data set [1], the Km was 8 µM.
